Where two headings read alike, the source gives them in different places.
Key:
[1] = system: PBMC from healthy human donors; assay: T cell proliferation assay (PHA-stimulated human PBMC, BrdU ELISA); assay type: cell-based; settings: 48 hours
Description: Cell proliferation was analysed using the BrdU based cell proliferation ELISA from Roche (Mannheim, Germany) according to the manufacturer's instructions. T Cell Proliferation Assay Peripheral blood mononuclear cells (PBMC) from healthy human donors were isolated by centrifugation over Ficoll-Hypaque (Sigma-Aldrich, Germany) according to manufacturer's instructions. Purified PBMC were washed twice with PBS and resuspended in RPMI1640 culture medium supplemented with 10% dialyzed heat inactivated fetal calf serum, 1.5 mM L-glutamine, 100 U penicillin/ml, and […] (all from PAN Biotech, Aidenbach, Germany). For stimulation, PBMC were seeded at 1×10^5 cells/well, activated with 2 μg/ml phytohaemagglutinin (PHA, Sigma) and incubated with the test compound. After 48 hours proliferation was measured using the BrdU based cell proliferation ELISA from Roche (Mannheim, Germany) according to the manual.

IFN-γ = IFN-γ production by PHA-stimulated human PBMC (OptEIA human IFN-g ELISA); assay type: cell-based; settings: 48 hours
Description: Analysis of Proliferation of and Cytokine Production by Human PBMC Stimulated with PHA
Peripheral blood mononuclear cells (PBMC) from healthy human donors were purified using Accuspin™ System-Histopaque-1077 (Sigma) according to the protocol recommended by the manufacturer. Purified PBMC were then washed twice with phosphate-buffered saline (PBS) and resuspended in RPMI1640 culture medium supplemented with 10% dialyzed heat inactivated fetal calf serum, 1.5 mM L-glutamine, 100 U penicillin/ml, and […] (all from PAN Biotech, Aidenbach, Germany). For stimulation, PBMC were seeded at 1×10^5 cells/well, activated with 2 μg/ml phytohaemagglutinin (PHA, Sigma) and incubated with the test compounds for 48 hours. IL-17A, IL-17F and INF-γ were then determined in the culture supernatant using a Luminex BioPlex system, following the manufacturer's instructions (BioRad, Munich, Germany). For screening, compounds were used at 10, 1, 0.1 and 0.01 μM. To determine the IC50, compounds were titrated semilogarithmically.
Cytokines were determined in the aforementioned culture supernatant using the following methods: IL-17AA/AF was measured using the Luminex BioPlex system (BioRad, Munich, Germany); IL-17AA using the human homodimer IL-17A ELISA Ready Set Go Kit from eBioscience (Frankfurt, Germany); IL-17FF using the human IL-17F ELI-Pair from Hölzel DiagnosticaGmBH (Köln, Germany); and IFN-γ using the OptEIA human IFN-g ELISA from BD Bioscience (Heidelberg, Germany), all following the manufacturer's instructions.

[2] = PHA-stimulated human PBMC, column D, read-out: IC50 (Tcell proliferation)
[3] = PHA-stimulated human PBMC, column C, read-out: IC50 (IFNγ)

| Structure (SMILES) | IC50 (IFN-γ; [3]) [µM] | other results |
| --- | --- | --- |
| CC(C)Cn1ncc(-c2onc(-c3c(F)cccc3Cl)c2-c2nnn[nH]2)c1C(F)(F)F [Example 1, 3-(2-chloro-6-fluorophenyl)-5-(1-isobutyl-5-(trifluoromethyl)-1H-pyrazol-4-yl)-4-(1H-tetrazol-5-yl)isoxazole] | – | IC50 ([1]; human PBMC, 2 μg/ml PHA, read-out: D: IC50 (Tcell proliferation)): 1 to 10 µM |
| Fc1cccc(Cl)c1-c1noc(-c2cnn(-c3ccccc3Cl)c2C(F)(F)F)c1-c1nnco1 [Example B-14, 2-(3-(2-chloro-6-fluorophenyl)-5-(1-(2-chlorophenyl)-5-(trifluoromethyl)-1H-pyrazol-4-yl)isoxazol-4-yl)-1,3,4-oxadiazole] | – | IC50 (IFN-γ; human PBMC, 2 μg/ml PHA, read-out: C: IC50 (IFNγ)): 1 to 10 µM |
| COC(=O)c1c(-c2c(F)cccc2Cl)noc1-c1cnn(-c2cccc(Cl)c2Cl)c1C(F)(F)F [Example I-4, methyl 3-(2-chloro-6-fluorophenyl)-5-(1-(2,3-dichlorophenyl)-5-(trifluoromethyl)-1H-pyrazol-4-yl)isoxazole-4-carboxylate] | – | IC50 [1, 2]: 1 to 10 µM |
| COC(=O)c1c(-c2c(F)cccc2Cl)noc1-c1cnn(-c2ccc(Cl)cc2Cl)c1C(F)(F)F [Example I-7, methyl 3-(2-chloro-6-fluorophenyl)-5-(1-(2,4-dichlorophenyl)-5-(trifluoromethyl)-1H-pyrazol-4-yl)isoxazole-4-carboxylate] | – | IC50 [1, 2]: 1 to 10 µM |
| CCOC(=O)c1c(-c2onc(-c3c(F)cccc3Cl)c2C(=O)OC)cnn1-c1ccsc1C(=O)OC [Example I-15, methyl 3-(2-chloro-6-fluorophenyl)-5-(5-(ethoxycarbonyl)-1-(2-(methoxycarbonyl)thiophen-3-yl)-1H-pyrazol-4-yl)isoxazole-4-carboxylate] | 1 to 10 | – |
| Fc1ccc(-n2ncc(-c3cc(-c4c(F)cccc4Cl)no3)c2C(F)(F)F)cc1 [Example I-25, 3-(2-chloro-6-fluorophenyl)-5-(1-(4-fluorophenyl)-5-(trifluoromethyl)-1H-pyrazol-4-yl)isoxazole] | 1 to 10 | – |
| CCOC(=O)c1c(-c2onc(-c3c(F)cccc3Cl)c2C(=O)OC)cnn1CC(C)C [Example I-29] | – | IC50 [1, 2]: 1 to 10 µM |
| COC(=O)c1c(-c2c(F)cccc2Cl)noc1-c1cnn(-c2ccc(OC(F)(F)F)cc2)c1C(F)(F)F [Example I-33, methyl 3-(2-chloro-6-fluorophenyl)-5-(1-(4-(trifluoromethoxy)phenyl)-5-(trifluoromethyl)-1H-pyrazol-4-yl)isoxazole-4-carboxylate] | – | IC50 [1, 2]: 1 to 10 µM |
| CCOC(=O)c1c(-c2onc(-c3c(F)cccc3Cl)c2C(=O)OC)cnn1-c1ccccc1 [Example I-34, methyl 3-(2-chloro-6-fluorophenyl)-5-(5-(ethoxycarbonyl)-1-phenyl-1Hpyrazol-4-yl)isoxazole-4-carboxylate] | – | IC50 [1, 2]: 1 to 10 µM |
| CCOC(=O)c1c(-c2onc(-c3c(F)cccc3Cl)c2C(=O)OC)cnn1-c1c(F)c(F)cc(F)c1F [Example I-38, methyl 3-(2-chloro-6-fluorophenyl)-5-(5(ethoxycarbonyl)-1-(2,3,5,6-tetrafluorophenyl)-1H-pyrazol-4-yl)isoxazole-4-carboxylate] | 1 to 10 | – |
| CCOC(=O)c1c(-c2onc(-c3c(F)cccc3Cl)c2C(=O)OC)cnn1-c1cc(F)cc(F)c1 [Example I-39, methyl 3-(2-chloro-6-fluorophenyl)-5-(1-(3,5-difluorophenyl)-5-(ethoxycarbonyl)-1-H-pyrazol-4-yl)isoxazole-4-carboxylate] | – | IC50 [1, 2]: 1 to 10 µM |
| CCOC(=O)c1c(-c2onc(-c3c(F)cccc3Cl)c2C(=O)OC)cnn1-c1ccccc1OC [Example I-40] | 1 to 10 | – |
| CCOC(=O)c1c(-c2onc(-c3c(F)cccc3Cl)c2C(=O)OC)cnn1-c1ccc(OC(F)(F)F)cc1 [Example I-45, methyl 3-(2-chloro-6-fluoro-phenyl)-5-(5-(ethoxycarbonyl)-1-(4-(trifluoromethoxy)phenyl)1H-pyrazol-4-yl)isoxazole-4-carboxylate] | 1 to 10 | – |

Now from value to molecule, other results behind:

| IC50 (IFN-γ; [3]) [µM] | Structure (SMILES) | other results |
| --- | --- | --- |
| 1 to 10 | CNC(=O)c1c(-c2ccc(Cl)cc2)noc1-c1cnn(-c2cccc(F)c2)c1C(F)(F)F [Example I-75, 3-(4-chlorophenyl)-5-(1-(3-fluorophenyl)-5-(trifluoromethyl)-1H-pyrazol-4-yl)-N-methylisoxazole-4-carboxamide] | – |
| 1 to 10 | COC(=O)c1c(-c2c(F)cccc2Cl)noc1-c1cnn(-c2ccc(OC)cc2)c1C(F)(F)F [Example I-79] | – |
| 1 to 10 | COC(=O)c1c(-c2c(F)cccc2Cl)noc1-c1cnn(-c2ccccc2Br)c1C(F)(F)F [Example I-80, methyl 5-(1-(2-bromophenyl)-5-(trifluoromethyl)-1H-pyrazol-4-yl)-3-(2-chloro-6-fluorophenyl)isoxazole-4-carboxylate] | – |
| 1 to 10 | COC(=O)c1c(-c2c(F)cccc2Cl)noc1-c1cnn(CCO)c1C(F)(F)F [Example I-83, methyl 3-(2-chloro-6-fluorophenyl)-5-(1-(2-hydroxyethyl)-5-(trifluoromethyl)-1H-pyrazol-4-yl)isoxazole-4-carboxylate] | – |
| 1 to 10 | CCOC(=O)c1c(-c2ccc(Cl)c(Cl)c2)noc1-c1cnn(-c2cccc(F)c2)c1C(F)(F)F [Example I-99, ethyl 3-(3,4-dichlorophenyl)-5-(1-(3-fluorophenyl)-5-(trifluoromethyl)-1H-pyrazol-4-yl)isoxazole-4-carboxylate] | – |
| 1 to 10 | COC(=O)c1c(-c2c(F)cccc2Cl)noc1-c1cnn(Cc2ccccn2)c1C(F)(F)F [Example I-101, methyl 3-(2-chloro-6-fluorophenyl)-5-(1-(pyridin-2-ylmethyl)-5-(trifluoromethyl)-1H-pyrazol-4-yl)isoxazole-4-carboxylate] | – |
| 1 to 10 | COC(=O)c1c(-c2c(F)cccc2Cl)noc1-c1cnn(CCN2CCCCC2)c1C(F)(F)F [Example I-104, methyl 3-(2-chloro-6-fluorophenyl)-5-(1-(2-(piperidin-1-yl)ethyl)-5-(trifluoromethyl)-1H-pyrazol-4-yl)isoxazole-4-carboxylate] | – |
| 1 to 10 | O=C(O)c1c(-c2cccc(F)c2)noc1-c1cnn(-c2cccc(F)c2)c1C(F)(F)F [Example I-114, 3-(3-fluorophenyl)-5-(1-(3-fluorophenyl)-5-(trifluoromethyl)-1H-pyrazol-4-yl)isoxazole-4-carboxylic acid] | – |
| 1 to 10 | Fc1ccccc1-n1ncc(-c2onc(-c3c(F)cccc3Cl)c2C(=S)N2CCOCC2)c1C(F)(F)F [Example I-123, (3-(2-chloro-6-fluorophenyl)-5-(1-(2-fluorophenyl)-5-(trifluoromethyl)-1H-pyrazol-4-yl)isoxazol-4-yl)(morpholino)meth-anethione] | – |
| 1 to 10 | CC(=O)NNC(=O)c1c(-c2c(F)cccc2Cl)noc1-c1cnn(-c2ccccc2F)c1C(F)(F)F [Example I-142, N′-acetyl-3-(2-chloro-6-fluorophenyl)-5-(1-(2-fluorophenyl)-5-(trifluoromethyl)-1H-pyrazol-4-yl)isoxazole-4-carbohydrazide] | – |
| 1 to 10 | CC(C)Cn1ncc(-c2onc(-c3c(F)cccc3Cl)c2C(=O)O)c1C(F)(F)F [IB-19, 3-(2-chloro-6-fluorophenyl)-5-(1-isobutyl-5-(trifluoromethyl)-1H-pyrazol-4-yl)isoxazole-4-carboxylic acid] | – |
| 1 to 10 | COc1ccccc1-n1ncc(-c2onc(-c3c(F)cccc3Cl)c2Br)c1C(F)(F)F [IB-23, 4-bromo-3-(2-chloro-6-fluorophenyl)-5-(1-(2-methoxyphenyl)-5-(trifluoromethyl)-1H-pyrazol-4-yl)isoxazole] | – |
